According to US20050209157A1, “Short bioactive peptides and methods for their use” (priority 2001, published 2005):
Where two headings read alike, the source gives them in different places. No end group written: not given here.

Tests used:
BMKC = experiment: Anti-cancer assay, MTT, LD50; format: cell-based; details: BMKC cloned melanoma line, 24 hours with peptide
Source text: (§1) Numbers are LD50 values (μg/mL).

H1299 = experiment: Anti-cancer assay, MTT, LD50; format: cell-based; details: 24 hours with peptide, lung large cell carcinoma
Source text: as §1

HeLaS3 = experiment: Anti-cancer assay, MTT, LD50; format: cell-based; details: 24 hours with peptide, cervical carcinoma
Source text: as §1

MCF7 = experiment: Anti-cancer assay, MTT, LD50; format: cell-based; details: MCF7 breast adenocarcinoma line, MTT, 24 hours with peptide
Source text: as §1

PC3 = experiment: Anti-cancer assay, MTT, LD50; format: cell-based; details: 24 hours with peptide, prostate adenocarcinoma
Source text: as §1

SW480 = experiment: Anti-cancer assay, MTT, LD50; format: cell-based; details: SW480 colon adenocarcinoma line, 24 hours with peptide
Source text: as §1

[1] = test system: human red blood cells (RBC); experiment: in vitro; format: cell-based; details: hemolytic assay, concentration at 50% hemolysis, 1 hour at 37° C.
WI38 = details: MTT, 24 hours with peptide; for WI38 LD50: normal fibroblast line; for LD50 WI38: WI38 normal lung fibroblast line
in vitro [2] = details: human, WI38 normal lung fibroblast cells
[3] = test system: Pseudomonas aeruginosa ATCC 9027; experiment: Antimicrobial assay I, MIC by OD measurement; format: cell-based; details: 37° C. for 24 hours, absorbance 620 nm
Source text: (§2) The data for the following antimicrobial assay of the peptides have been obtained by making OD measurements in in vitro cell culture experiments with and without added peptide. The protocol used is as follows.
(§3) Cell lines included Staphylococcus aureus ATCC 6538 or 25923, Pseudomonas aeruginosa ATCC 9027 or 27853. Medium used were Antibiotic Medium 3 (Difco), Antibiotic Medium 2 (Difco), and 0.85% saline. Controls used were physiological saline, and gentamycin at 50, 25, 10, 5, 1, and 0.1 ppm.
(§4) Absorbance was read at 620 nm after shaking to resuspend cells.
(§5) Staph6538 is Staphylococcus aureus ATCC accession number 6538; paerug9027 is Pseudomonas aeruginosa ATCC accession number 9027, yeast is Saccharomyces cerevisiae.

[4] = test system: Staphylococcus aureus ATCC 6538; experiment: Antimicrobial assay I, MIC by OD measurement; format: cell-based; details: 37° C. for 24 hours, absorbance 620 nm
Source text: as §2, §3, §4, §5

[5] = test system: yeast (Saccharomyces cerevisiae); experiment: Antimicrobial assay I, yeast assay in RPMI 1640; format: cell-based; details: RPMI 1640 media
Procedure: as §2, §4
The yeast assay was performed in RPMI 1640 media (pH 7.0 at 25° C.).
as §5

in vitro [6] = format: cell-based, human; details: human, human red blood cells
[7] = test system: Escherichia coli ATCC 25922; experiment: Antimicrobial assay I, modified protocol (tryptic soy broth), MBC; details: minimum bactericidal concentration, Table 4
[8] = test system: Pseudomonas aeruginosa ATCC 27853; experiment: as above; details: minimum bactericidal concentration, Table 4
[9] = test system: Stapholococcus aureus ATCC 25923; experiment: as above; details: minimum bactericidal concentration, Table 4
[10] = test system: Candida albicans ATCC 10231; experiment: Antimicrobial assay I, modified protocol (tryptic soy broth), MFC; details: minimum fungicidal concentration, Table 4
Procedure: The preparation of all media, stock solutions, and dilutions took place in a laminar flow hood to prevent contamination. Bacterial cells were freshly grown on antibiotic medium 2 agar slants (pH 7.0 at 25° C.). Bacteria were suspended and diluted in antibiotic medium 3 to about 10^4 cfu/ml and used as the inoculum. Sample solutions (100 μl/well) were added to plates according to the plate layout. Inoculum (100 μl/well) was added to achieve a final concentration of 5×10^3 cfu/ml. Negative controls received 100 μl saline and 100 μl growth medium. Positive controls received 100 μl saline and 100 μl inoculum. Bacterial plates were incubated at 37° C. for 24 hours.
However, the data for Table 4 were obtained with a modified protocol wherein the medium was tryptic soy broth, inocolum strength was approximately 10^4 CFU per ml, and values determined were minimum bactericidal concentrations (MBC) or minimum fungicidal concentrations (MFC).
MBC or MFC values are in μg/mL. E. coli is Escherichia coli ATCC accession number 25922; P. aerug is Pseudomonas aeruginosa ATCC accession number 27853, S. aur. is Stapholococcus aureus ATCC accession number 25923; Candida is Candida albicans ATCC accession number 10231.

[11] = test system: human leukocyte (WBC) cells; experiment: Stimulation and proliferation of leukocytes, Alamar Blue; format: cell-based; details: compared to untreated positive control cells; Alamar Blue
Procedure: In vitro viability of human leukocyte cells in the presence of different peptides at different concentrations was determined by an Alamar Blue protocol. Alamar Blue (Promega, Madison, Wis.) is an indicator dye, formulated to measure quantitatively the proliferation and cytotoxicity of the cells. The dye consists of an oxidation-reduction (redox) indicator that yields a calorimetric change and a fluorescent signal in response to cellular metabolic activity.
Assay protocol: Blood from a human was drawn and centrifuged at 1500 rpm for 15 minutes at room temperature. The buffy coat cells at the plasma-red blood cell interface were aspirated. Buffy coat cells (mainly lymphocyte cells) were then transferred into 15 ml centrifuge tubes containing 5 ml of RPMI-1640 medium+10% Fetal Bovine Serum (Gibco, Grand Island, N.Y.). Additional medium was added to the tubes to bring the volume up to 10 ml. The buffy coat suspension was then carefully layered on 5 ml of Histopaque (Sigma Chemical Co., St. Louis, Mo.) and centrifuged at 1500 rpm for 30 minutes at room temperature. The interface which is mostly PBMCs (peripheral mononuclear cells) was aspirated and transferred to a 15 ml conical centrifuge tube and, resuspended in 2 ml cold RPMI-1640 and brought up to 15 ml with cold RPMI-1640 medium. Cells were centrifuged at 1500 rpm for 10 minutes. The supernatant was then aspirated and discarded. The cell pellet was re-suspended in 1 ml of cold RPMI 1640 and brought up to 15 ml with RPMI medium. This step was repeated twice, except that in the last step, the cells were resuspended with 1 ml of cold RPMI-1640 medium and cell counts were performed with a hemocytometer according to the Sigma cell culture catalogue.
Pokewood mitogen was used as a control along with positive and negative controls. Negative control cells were killed with 70% methanol. Positive (+) control cells were incubated in RPMI medium (untreated). […] of AlamarBlue was added to the cells, and readings were taken after 24 hours, 48 hours, 72 hours, and 96 hours using a fluorimeter (excitation 544/transmission 590 nm).
Calculations were performed using the following formula. The peptide treated sample and positive control were adjusted for negative control. [formula]
Using the protocol described immediately above, about 100-150 peptides were screened for their stimulatory and/or inhibitory actions upon the growth of human leukocyte (“WBC”) cells as compared to the growth of untreated positive control cells.
The Alamar Blue stain used in the protocol permeates both cell and nuclear membranes, and is metabolized in the mitochondria to cause the change in color. The resulting fluorometric response is therefore a result of total mitochondrial activity caused by cell stimulation and/or mitosis (cell proliferation).

[12] = LD50 WI38, WI38 normal lung fibroblast line, MTT, 24 hours with peptide

Row | Substance | LD50 BMKC (BMKC) | H1299 LD50 (H1299) | HeLaS3 LD50 (HeLaS3) | LD50 MCF7 (MCF7) | PC3 LD50 (PC3) | LD50 SW480 (SW480) | LD50 [1] | WI38 LD50 (WI38) | CC50 at 24 h (in vitro [2]; [12]) [µg/mL] | also measured
1 | FKLAFKLAKKAFL-NH2 [P122] | 700 µg/mL | 830 µg/mL | 780 µg/mL | 360 µg/mL | 800 µg/mL | 570 µg/mL | > (> indicates greater than 1000) | 720 µg/mL | 720 | 
2 | KFKKLAKKF-NH2 [P174] | > (> indicates greater than 1000) | > (> indicates greater than 1000) | > (> indicates greater than 1000) | > (> indicates greater than 1000) | > (> indicates greater than 1000) | > (> indicates greater than 1000) | > (> indicates greater than 1000) | > (> indicates greater than 1000) |  | LD50 WI38 (WI38): > (> indicates greater than 1000)
3 | KFKKLAKKW-NH2 [P175] | > (> indicates greater than 1000) | > (> indicates greater than 1000) | 510 µg/mL | > (> indicates greater than 1000) | > (> indicates greater than 1000) | 70 µg/mL | > (> indicates greater than 1000) | > (> indicates greater than 1000) |  | LD50 WI38 (WI38): > (> indicates greater than 1000)
4 | KKVVFKVKFK-NH2 [P302, reference compound] | 700 µg/mL | 720 µg/mL | > (> indicates greater than 1000) | 340 µg/mL | > (> indicates greater than 1000) | > (> indicates greater than 1000) | > (> indicates greater than 1000) | 800 µg/mL | 800 | 
5 | KLAKKLAKLAKLAKAL-OH [P160, reference compound] | 220 µg/mL | 470 µg/mL | 550 µg/mL | 320 µg/mL | 450 µg/mL | 370 µg/mL | > (> indicates greater than 1000) | 700 µg/mL | 700 | 
6 | MPKWKVFKKIEKVGRNIRNGIVKAGPAIAVLGEAKALG-OH [P5, reference compound] |  |  |  |  |  |  | > (> indicates greater than 1000) |  |  | paerug9027 (MIC) [3]: 50 µg/mL; staph6538 (MIC) [4]: 100 µg/mL; yeast (MIC or MFC) [5]: > (> indicates greater than 200 μg/mL)
7 | VALALKALKKALKKLKKALKKAL-NH2 [compound 30] |  |  |  |  |  |  |  |  |  | HC50 at 1 h (in vitro [6]; pH 7, Table 26, valine substitution, read-out: Hemolysis RBC LD50): 150 µg/mL; CC50 at 24 h (in vitro [2]; WI-38 LD50, Table 26, valine substitution): 93 µg/mL; MBC E. coli A.25922 [7]: 10 µg/mL; MBC P. aerug A.27853 [8]: 15 µg/mL; MBC S. aur A.25923 [9]: 40 µg/mL; MFC Candida A.10231 [10]: >50 µg/mL
8 | VALALKALKKLAKKLKKLAKKAL-NH2 [P509] |  |  |  |  |  |  |  |  |  | stimulatory and/or inhibitory action on growth of human leukocyte (WBC) cells [11]: stimulatory (and/or proliferative) at all concentrations through 500 μg/ml; HC50 at 1 h (in vitro [6]; pH 7, hemolytic assay, concentration at 50% hemolysis, 1 hour at 37° C., read-out: LD50): 40 µg/mL
